The subject of the assay is BDF1 mice, P388 leukemia ip, median survival T/C. Briefly: NCI In Vivo Anticancer Drug Screen. Data for tumor model P388 Leukemia (intraperitoneal) in B6D2F1 (BDF1) mice. To be noted: endpoint: median survival time, higher = longer survival. The procedure, abridged: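 Reported as T/C, where T is the survival measurement in dosed animals and C the same measurement in vehicle controls.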

[1] abbreviates: dose: 25.0 mg/kg/injection, schedule: Q01DX009 (ip), vehicle: saline with Tween-80.
Where [2] appears, read: dose: 50.0 mg/kg/injection, schedule: Q01DX009 (ip), vehicle: saline with Tween-80.
Setting [3] is: dose: 100.0 mg/kg/injection, schedule: Q01DX009 (ip), vehicle: saline with Tween-80.
The mark [4] stands for this setting: dose: 200.0 mg/kg/injection, schedule: Q01DX009 (ip), vehicle: saline with Tween-80.
Setting [5] is: dose: 400.0 mg/kg/injection, schedule: Q01DX009 (ip), vehicle: saline with Tween-80.
Setting [6] is: dose: 50.0 mg/kg/injection, schedule: Q04DX003 (ip), vehicle: saline sonified.
Setting [7] is: dose: 100.0 mg/kg/injection, schedule: Q04DX003 (ip), vehicle: saline sonified.

We go through 13 compounds from PubChem BioAssay AID328 (DTP/NCI, 2004).

“And” between values parts separate entries of the source, which are not always exact repeats. Equal entries are not always repeated. Toxic doses and inconclusive results are not listed.

Take `C/C=C/C(=O)NCC(C(C)C)/[N+]([O-])=N/O` (stereo not given): the T/C reads like this: (dose: 6.25 mg/kg/injection, schedule: Q01DX009 (ip), vehicle: saline with Tween-80) 104 % of control; (dose: 12.5 mg/kg/injection, schedule: Q01DX009 (ip), vehicle: saline with Tween-80) 116 % of control; under setting [1], 87 % of control.
For `O=c1[nH]cn[nH]1`, the T/C reads like this: (dose: 100.0 mg/kg/injection, schedule: Q01DX001 (ip), vehicle: saline sonified) 122 % of control; (dose: 200.0 mg/kg/injection, schedule: Q01DX001 (ip), vehicle: saline sonified) 95 % of control; (dose: 400.0 mg/kg/injection, schedule: Q01DX001 (ip), vehicle: saline sonified) 90 % of control.
`COCCOC1=C(N2CC2)C(=O)C(OCCOC)=C(N2CC2)C1=O`: the T/C (dose: 0.26 mg/kg/injection, schedule: Q01DX009 (ip), vehicle: saline) was 99 % of control; the T/C (dose: 0.4 mg/kg/injection, schedule: Q01DX009 (ip), vehicle: saline) was 108 % of control; the T/C (dose: 0.88 mg/kg/injection, schedule: Q01DX009 (ip), vehicle: saline) was 163 % of control; the T/C (dose: 0.88 mg/kg/injection, schedule: Q04DX003 (ip), vehicle: saline) is 121 % of control; the T/C (dose: 0.9 mg/kg/injection, schedule: Q01DX009 (ip), vehicle: saline) was 108 % of control; the T/C (dose: 1.0 mg/kg/injection, schedule: Q01DX009 (ip), vehicle: saline) is 171 % of control and 180 % of control. In addition, the T/C (dose: 1.32 mg/kg/injection, schedule: Q01DX009 (ip), vehicle: saline) is 209 % of control; the T/C (dose: 1.32 mg/kg/injection, schedule: Q04DX003 (ip), vehicle: saline) is 113 % of control; the T/C (dose: 2.0 mg/kg/injection, schedule: Q01DX009 (ip), vehicle: saline) is 223 % of control and 263 % of control and 220 % of control; the T/C (dose: 3.0 mg/kg/injection, schedule: Q01DX009 (ip), vehicle: saline) is 231 % of control; the T/C (dose: 3.0 mg/kg/injection, schedule: Q04DX003 (ip), vehicle: saline) is 152 % of control; the T/C (dose: 3.3 mg/kg/injection, schedule: Q04DX003 (ip), vehicle: saline) is 186 % of control. The T/C by setting is: (dose: 4.0 mg/kg/injection, schedule: Q01DX009 (ip), vehicle: saline) 109 % of control and 115 % of control; (dose: 5.0 mg/kg/injection, schedule: Q04DX003 (ip), vehicle: saline) 209 % of control; (dose: 6.25 mg/kg/injection, schedule: Q04DX003 (ip), vehicle: saline) 236 % of control; (dose: 7.5 mg/kg/injection, schedule: Q04DX003 (ip), vehicle: saline) 272 % of control; (dose: 12.5 mg/kg/injection, schedule: Q04DX003 (ip), vehicle: saline) 118 % of control.
For the compound `CS(C)=O.CS(C)=O.[Cl][Rh]([Cl])([Cl])[Cl]`, the T/C reads like this: (dose: 12.5 mg/kg/injection, schedule: Q01DX009 (ip), vehicle: saline) 120 % of control; (dose: 22.0 mg/kg/injection, schedule: Q01DX009 (ip), vehicle: saline) 116 % of control and 120 % of control; (dose: 33.0 mg/kg/injection, schedule: Q01DX009 (ip), vehicle: saline) 95 % of control and 116 % of control; (dose: 50.0 mg/kg/injection, schedule: Q01DX009 (ip), vehicle: saline) 166 % of control.
`CN(C)N=Nc1ccccc1C(N)=O`: the T/C by setting is: (dose: 22.0 mg/kg/injection, schedule: Q01DX009 (ip), vehicle: saline with Tween-80) 111 % of control; (dose: 26.6 mg/kg/injection, schedule: Q01DX009 (ip), vehicle: saline with Tween-80) 104 % of control; (dose: 33.0 mg/kg/injection, schedule: Q01DX009 (ip), vehicle: saline with Tween-80) 100 % of control; (dose: 40.0 mg/kg/injection, schedule: Q01DX009 (ip), vehicle: saline with Tween-80) 91 % of control; under setting [2], 111 % of control; (dose: 60.0 mg/kg/injection, schedule: Q01DX009 (ip), vehicle: saline with Tween-80) 120 % of control. In addition, the T/C (dose: 75.0 mg/kg/injection, schedule: Q01DX009 (ip), vehicle: saline with Tween-80) is 161 % of control.
Turning to `COc1ccc(C2CC(c3ccccc3O)=NC(c3ccc(OC)cc3)N2)cc1` (stereo not given), the T/C was 91 % of control under setting [1], 94 % of control under setting [2] and 92 % of control under setting [3].
Regarding `COc1ccc(C2CCc3cc4c(cc3/C2=N/O)OCO4)cc1OC` (stereo not given), the T/C by setting is: under setting [3], 104 % of control; (dose: 100.0 mg/kg/injection, schedule: Q04DX003 (ip), vehicle: saline with Tween-80) 100 % of control; under setting [4], 104 % of control; (dose: 200.0 mg/kg/injection, schedule: Q04DX003 (ip), vehicle: saline with Tween-80) 100 % of control; under setting [5], 95 % of control; (dose: 400.0 mg/kg/injection, schedule: Q04DX003 (ip), vehicle: saline with Tween-80) 90 % of control.
As to `COc1cc2cc(c1Cl)N(C)C(=O)CC(OC(=O)C(F)(F)F)C1(C)OC1C(C)C1CC(O)(NC(=O)O1)C(OC)C=C/C=C(\C)C2` (stereo not given), the T/C reads like this: (dose: 0.8 micrograms/kg/injection, schedule: Q01DX009 (ip), vehicle: saline + alcohol) 110 % of control; (dose: 1.5 micrograms/kg/injection, schedule: Q01DX009 (ip), vehicle: saline + alcohol) 100 % of control; (dose: 1.8 micrograms/kg/injection, schedule: Q01DX009 (ip), vehicle: saline + alcohol) 107 % of control; (dose: 3.1 micrograms/kg/injection, schedule: Q01DX009 (ip), vehicle: saline + alcohol) 98 % of control and 100 % of control; (dose: 6.2 micrograms/kg/injection, schedule: Q01DX009 (ip), vehicle: saline + alcohol) 98 % of control and 108 % of control; (dose: 12.5 micrograms/kg/injection, schedule: Q01DX009 (ip), vehicle: saline + alcohol) 96 % of control and 120 % of control. Moreover, the T/C is 96 % of control (dose: 25.0 micrograms/kg/injection, schedule: Q01DX009 (ip), vehicle: saline + alcohol); 107 % of control (dose: 50.0 micrograms/kg/injection, schedule: Q01DX009 (ip), vehicle: saline + alcohol); 91 % of control and 108 % of control (dose: 100.0 micrograms/kg/injection, schedule: Q01DX009 (ip), vehicle: saline + alcohol); 91 % of control (dose: 200.0 micrograms/kg/injection, schedule: Q01DX009 (ip), vehicle: saline + alcohol); 117 % of control (dose: 400.0 micrograms/kg/injection, schedule: Q01DX009 (ip), vehicle: saline + alcohol).
As for `CN(C)c1ccc(S(=O)(=O)c2ccc3nc(N)nc(N)c3c2)cc1`, the T/C is 97 % of control under setting [2], 91 % of control under setting [3] and 88 % of control under setting [4].
With `NC1=NC(c2ccc(Cl)cc2)N(c2ccc(S(=O)(=O)Nc3ncccn3)cc2)C(N)=N1` (stereo not given), the T/C is, setting by setting: (dose: 25.0 mg/kg/injection, schedule: Q04DX003 (ip), vehicle: saline sonified) 104 % of control; under setting [6], 104 % of control; under setting [7], 95 % of control.
For `CNC(CCc1ccccc1)C(=O)O` (stereo not given), the T/C runs as follows: under setting [6], 95 % of control; under setting [7], 91 % of control; (dose: 200.0 mg/kg/injection, schedule: Q04DX003 (ip), vehicle: saline sonified) 91 % of control.
`O=C(NC1CCOC1=O)OCc1ccccc1` (stereo not given): the T/C runs as follows: under setting [2], 100 % of control; under setting [3], 100 % of control; under setting [4], 100 % of control; under setting [5], 98 % of control.
On to `COc1cccc2c1C(=O)c1c(O)c3c(c(O)c1C2=O)C[C@@](O)(C(=O)CO)C[C@@H]3OC1CC(NC(C)=O)C(O)C(C)O1` (stereo not given in full), for which the T/C (dose: 25.0 mg/kg/injection, schedule: Q04DX009 (ip), vehicle: other) was 119 % of control; the T/C (dose: 100.0 mg/kg/injection, schedule: Q04DX009 (ip), vehicle: other) was 119 % of control; the T/C (dose: 200.0 mg/kg/injection, schedule: Q04DX009 (ip), vehicle: other) was 119 % of control.
